Test results taken from US20220218729A1, “USE OF GINSENOSIDE M1 FOR TREATING CANCER” (priority 2019, published 2022).

How the values were obtained:
Type in all cases: cell-based
[1] = test system: human malignant melanoma A375.S2 cells; assay: Western blot of apoptosis-related proteins (A375.S2); settings: A375.S2, M1 10, 20 and 40 μM, 24 h, FIGS. 5A, 5B
Experimental: (§1) Human malignant melanoma A375.S2 cell line was obtained from the American Type Culture Collection (ATCC, USA). A375.S2 cells were grown in minimum essential medium supplemented with 10% fetal bovine serum, 100 U/mL of penicillin, and 100 μg/mL of streptomycin (Life Technologies, USA). PC-3 cells (hormone-independent human prostate cancer cells) were cultured in Ham's F12K medium supplemented with 7% fetal bovine serum, 100 U/mL of penicillin, and 100 μg/mL of streptomycin (Life Technologies, USA). Cells were cultured at 37° C. in a 5% CO2 incubator.
(§2) Plate 4×10^5 cells per well into 6-cm dish, and incubated with different concentrations of M1 (10, 20 and 40 μM), cisplatin (50 μM) or vehicle for 24 h. The cells were exacted by disruption in RIPA buffer (Sigma-Aldrich, Germany) in the presence of protease inhibitor cocktail. Each protein sample was run on a 12% SDS-PAGE gel and transferred to PVDF membrane, which was then incubated for 1 h at room temperature in blocking buffer and then overnight at 4° C. with primary antibodies against caspase-3, caspase-9 (Cell Signaling Technology, USA), Bax, Bcl-2 or β-actin (Santa Cruz, USA). The membrane was incubated for 1 h at room temperature with HRP-conjugated secondary antibodies. The proteins were detected using enhanced chemiluminescence reagent (GE, UK).
(§3) To further investigate mechanism of action of M1, we used Annexin V/PI double staining by flow cytometry and crucial protein expression by Western blot analysis to measured targeting hallmarks of apoptosis.

[2] = test system: human malignant melanoma A375.S2 cells; assay: Wound healing assay (A375.S2); settings: M1 20 or 40 μM, 24 h, vs control; FIG. 3
Experimental: as §1
(§4) Cells were seeded at 6×10^5 into 6-well plates and incubated for 24 h. Then used a sterile 200-μl pipette tip to create a straight gap of constant width, and each well was washed with sterile PBS. Next, the cells were incubated with various concentrations of M1 (10, 20, and 40 μM) or vehicle. The cells were photographed at 0 and 24 h under a microscope at 100× magnification.
To investigates the effect of M1 on the inhibition of migration ability of melanoma cells, A375.S2 cells were subjected to the wound healing assay with various concentration of M1.

[3] = test system: human prostate cancer PC-3 cells; assay: Wound healing assay (PC-3); settings: M1 20 or 40 μM, 24 h, vs vehicle; FIG. 8
Experimental: as §1, §4
Next, we performed whether M1 reduces the migration ability by wound healing assay in PC-3 cells. Cells were seeded at 6×10^5 per 6-well plates in culture medium and were grown overnight at 37° C. in a 5% CO2 incubator. Each well was scratched with sterile 200-μl pipette tip in the cell monolayer, and washed with sterile PBS twice. […] The data are expressed as the means±SEM for three separate experiments. *p<0.05, ***p<0.005. […]

[4] = test system: human malignant melanoma A375.S2 cells; assay: Colony formation assay (A375.S2); settings: M1 10, 20 and 40 μM, 10 days; FIG. 2
Experimental: as §1
(§5) Plate 500 cells per well into 6-well plates and incubated with different M1 concentrations (10, 20, and 40 μM) or vehicle for 10 days. Cells were fixed in 4% paraformaldehyde after washing with cold PBS twice, and stained with 0.5% crystal violet 10 min at room temperature.
To investigates the effect of M1 on the reduction of colony formation ability of melanoma cells, A375. S2 cells were subjected to colony formation assay with various concentration of M1.

[5] = test system: human prostate cancer PC-3 cells; assay: Western blot of apoptosis-related proteins (PC-3); settings: PC-3, M1 10, 20 and 40 μM, 24 h, FIGS. 10A, 10B
Experimental: as §1, §2
(§6) Furthermore, to investigate mechanisms underlying the apoptosis-inducing activity of M1, we detected Annexin V/PI double staining by flow cytometry and apoptosis related protein expression by Western blot. PC-3 cells were plate 2.5×10^5 per 6-well plates, and incubated with M1 (40 μM) or vehicle for 24 h. The cells were harvested by gently trypsinizing and wash with ice-PBS twice, then stained with Annexin V-FITC/PI apoptosis detection kit (BD Biosciences, USA) according to the manufacturer's instructions and measured using a flow cytometer within 1 hour. […] The data are expressed as the means±SEM for three separate experiments. ***p<0.005. (One-way ANOVA and subsequent Scheffe's test).

[6] = test system: human prostate cancer PC-3 cells; assay: Colony formation assay (PC-3); settings: M1 10, 20 and 40 μM, 10 days, dose-dependent, vs vehicle; FIG. 7
Experimental: as §1, §5
Seeding 500 cells per 6-well plates and treated for 10 days with different concentrations of M1 (10, 20, and 40 μM) or vehicle. The cells were fixed in 4% paraformaldehyde for 15 min, after washing with cold PBS twice, and stained with 0.5% crystal violet 10 min at room temperature. […] The data are expressed as the means±SEM for three separate experiments. *p<0.05, ***p<0.005. (One-way ANOVA and subsequent Scheffe's test).

[7] = test system: human prostate cancer PC-3 cells; assay: Annexin V/PI apoptosis flow cytometry (PC-3); settings: M1 40 μM, 24 h, vs vehicle; FIG. 9
Experimental: as §1, §6

[8] = test system: human malignant melanoma A375.S2 cells; assay: Cell viability, trypan blue exclusion (A375.S2); settings: 24 h, FIG. 1
Experimental: as §1
(§7) Seeding cells (2.5×10^5 cells/well) in 6-well plates and incubated with different concentrations of M1 (10, 20 and 40 μM), cisplatin (50 μM) or vehicle for 24 h. Cells were detached by trypsinization and the cell numbers were counted by trypan blue exclusion method.
To investigates the effect of M1 on the inhibition of human malignant melanoma cell growth, A375 cells were cultured with various concentration of M1.

[9] = test system: human malignant melanoma A375.S2 cells; assay: Annexin V/PI apoptosis flow cytometry (A375.S2); settings: 24 h, FIG. 4
Experimental: as §1
A375.S2 cells were seeded at 2.5×10^5 into 6-well plates, and incubated with M1 (40 μM), cisplatin (50 μM) or vehicle for 24 h. To perform apoptosis using an Annexin V-FITC/PI apoptosis detection kit (BD Biosciences, USA) according to the manufacturer's instructions, and then analyzed by flow cytometry (BD Biosciences).
as §3

[10] = test system: human prostate cancer PC-3 cells; assay: Cell viability, trypan blue exclusion (PC-3); settings: M1 10, 20 and 40 μM, 24 h, dose-dependent; FIG. 6
Experimental: as §1, §7
Plate human prostatic cancer cell line PC-3 2.5×10^5 per 6-well plates and cultured in Ham's F12K medium supplemented with 7% fetal bovine serum, 100 U/mL of penicillin, and 100 μg/mL of streptomycin (Life Technologies, USA). Cells were cultured overnight at 37° C. in a 5% CO2 incubator, and then treated with different concentrations of M1 (10, 20 and 40 μM) or vehicle for 24 h, and the cell numbers were counted by trypan blue exclusion method. […] The data are expressed as the means±SEM for three separate experiments. *p<0.05, **p<0.01. […]

| Structure (SMILES) | Bcl-2 protein expression ([1]; dose-dependent) | pro-caspase-3 protein expression ([1]; dose-dependent) | pro-caspase-9 protein expression ([1]; dose-dependent) | levels of caspase-3 [1] | levels of caspase-9 [1] | cell migration ability of A375.S2 cells [2] | cell migration ability of PC-3 cells [3] | numbers of colonies of A375.S2 cells [4] | Bax/Bc1-2 ratio ([5]; dose-dependent) | protein levels of caspase-9 ([5]; dose-dependent) | pro-caspase-3 protein expression [5] | pro-caspase-9 protein expression [5] | colony formation ability of PC-3 cells [6] | percentage of PC-3 cells with Annexin V/PI double staining [7] | cell numbers of A375.S2 cells ([8]; M1 10, 20 and 40 μM, vs control) | percentage of A375.S2 cells with Annexin V/PI double staining ([9]; M1 40 μM) | cell numbers of PC-3 cells [10] | cell numbers of A375.S2 cells ([8]; cisplatin 50 μM, positive control) | percentage of A375.S2 cells with Annexin V/PI double staining ([9]; cisplatin 50 μM) |
| --- | --- | --- | --- | --- | --- | --- | --- | --- | --- | --- | --- | --- | --- | --- | --- | --- | --- | --- | --- |
| CC(C)=CCC[C@](C)(O[C@@H]1OC(CO)[C@@H](O)[C@@H](O)C1O)[C@H]1CC[C@]2(C)C1[C@H](O)CC1[C@@]3(C)CC[C@H](O)C(C)(C)C3CC[C@]12C (stereo partly drawn) [M1, 20-O-β-D-glucopyranosyl-20(S)-protopanaxadiol] | decrease | decrease | decrease | significantly increased | significantly increased | markedly decreased the cell migration ability | significantly decreased the cell migration ability | reduced dose-dependently | increased | increased | significantly decreased | significantly decreased | inhibited the colony formation ability | greatly increased the percentage | decreased the cell numbers | greatly increased the percentage | significantly decrease cell numbers | – | – |
| N.N.[Cl][Pt][Cl] [cisplatin, reference compound] | – | – | – | – | – | – | – | – | – | – | – | – | – | – | – | – | – | decreased the cell numbers | greatly increased the percentage |
